Tests used:
Assay in all cases: competitive radioligand binding
sigma-1 receptor = target: sigma-1 receptor
5-HT2C receptor = target: T1, 5-HT2C receptor (Homo sapiens, UniProt P28335)
T1 sequence (P28335 33-458): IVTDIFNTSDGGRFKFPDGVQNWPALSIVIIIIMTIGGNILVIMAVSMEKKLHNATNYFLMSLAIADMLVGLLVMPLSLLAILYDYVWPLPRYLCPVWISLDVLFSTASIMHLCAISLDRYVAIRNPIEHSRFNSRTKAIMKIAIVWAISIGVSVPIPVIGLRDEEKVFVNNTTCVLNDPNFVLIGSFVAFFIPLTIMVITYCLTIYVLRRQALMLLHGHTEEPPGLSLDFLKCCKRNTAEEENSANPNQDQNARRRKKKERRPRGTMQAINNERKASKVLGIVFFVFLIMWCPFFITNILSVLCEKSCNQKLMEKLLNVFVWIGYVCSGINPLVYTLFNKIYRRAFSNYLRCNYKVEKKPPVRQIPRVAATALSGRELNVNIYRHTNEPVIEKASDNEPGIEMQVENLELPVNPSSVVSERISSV

5-HT2B receptor = 5-HT2B receptor (Homo sapiens, UniProt P41595)
5-HT2B receptor, sequence (P41595 whole entry): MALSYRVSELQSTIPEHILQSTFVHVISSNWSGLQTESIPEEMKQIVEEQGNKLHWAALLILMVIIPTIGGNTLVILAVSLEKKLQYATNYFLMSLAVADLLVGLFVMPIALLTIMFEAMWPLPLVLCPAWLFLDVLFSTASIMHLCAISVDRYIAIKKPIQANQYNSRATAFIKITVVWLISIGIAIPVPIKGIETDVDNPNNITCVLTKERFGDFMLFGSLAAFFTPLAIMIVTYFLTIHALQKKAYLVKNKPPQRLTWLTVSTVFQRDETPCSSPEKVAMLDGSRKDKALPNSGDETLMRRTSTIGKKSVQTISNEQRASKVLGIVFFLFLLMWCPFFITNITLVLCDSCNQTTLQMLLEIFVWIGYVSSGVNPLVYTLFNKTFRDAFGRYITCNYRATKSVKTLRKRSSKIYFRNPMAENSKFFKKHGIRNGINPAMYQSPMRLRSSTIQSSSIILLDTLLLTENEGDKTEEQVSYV

CN[C@@H](C)C(=O)c1ccc(C)cc1 [S-MEPH, S-mephedrone]
Ki (sigma-1 receptor): 1500 nM
Ki (5-HT2C receptor): 3900 nM
Ki (5-HT2B receptor): 857 nM

Reference: PMC5548612 (Drug and alcohol dependence, 2017)
